Molecular target: T1, 3-hydroxyacyl-CoA dehydrogenase activity of multi-active enzyme (Pseudomonas fragi, UniProt P28793)
T1 construct: Crude enzyme was prepared from microbial cells of Pseudomonas fragi B-0771; endogenous in cells; host or cells: Pseudomonas fragi B-0771 FERM-P No. 5701 (enzyme extracted with lysozyme and purified from its own cells, not recombinant)
Assay: Substrate specificity of 3-hydroxyacyl-CoA dehydrogenase activity
Format: biochemical, Pseudomonas fragi B-0771
Conditions: 3-hydroxyacyl-CoA used as substrate of 3-hydroxyacyl-CoA dehydrogenase activity
Protocol: (§1) The enzyme solution (50 μl) was added to the above reaction mixture, which was preincubated at 27° C. for 2 minutes, and the mixture was incubated at 37° C. for 10 minutes. 0.5% sodium dodecyl sulfate (2.0 ml) was added to stop the reaction and the absorbency was measured at 550 nm (ΔA550) One unit (1 U) is defined as the amount of enzyme which generates 1 μmole of reduced NAD in one minute. Enzyme activity is defined by the following equation: [formula] (c) Assay method of 3-ketoacyl-CoA thiolase activity:
3-hydroxyacyl-CoA dehydrogenase activity was measured by using the following embodiments of 3-hydroxyacyl-CoA: […]

T1 sequence (P28793 whole entry): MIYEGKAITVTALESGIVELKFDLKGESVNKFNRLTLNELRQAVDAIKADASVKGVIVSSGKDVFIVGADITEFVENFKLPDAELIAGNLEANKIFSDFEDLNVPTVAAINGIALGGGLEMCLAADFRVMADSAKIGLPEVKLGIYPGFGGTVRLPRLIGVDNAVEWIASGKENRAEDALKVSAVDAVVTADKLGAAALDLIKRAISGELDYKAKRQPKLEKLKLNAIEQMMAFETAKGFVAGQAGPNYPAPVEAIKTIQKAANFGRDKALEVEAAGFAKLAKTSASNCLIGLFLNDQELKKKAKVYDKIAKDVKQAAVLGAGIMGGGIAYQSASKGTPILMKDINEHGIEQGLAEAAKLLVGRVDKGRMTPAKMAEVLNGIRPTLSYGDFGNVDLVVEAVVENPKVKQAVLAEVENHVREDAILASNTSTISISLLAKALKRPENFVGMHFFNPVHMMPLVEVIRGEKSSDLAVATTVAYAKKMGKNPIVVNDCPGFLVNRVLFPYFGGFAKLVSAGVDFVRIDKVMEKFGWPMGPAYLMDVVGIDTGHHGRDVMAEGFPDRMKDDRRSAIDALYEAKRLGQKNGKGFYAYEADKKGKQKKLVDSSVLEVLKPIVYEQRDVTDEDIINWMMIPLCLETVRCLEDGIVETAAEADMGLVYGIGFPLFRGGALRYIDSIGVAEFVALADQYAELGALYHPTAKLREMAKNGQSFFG
T1 sequence (P28790 whole entry partner): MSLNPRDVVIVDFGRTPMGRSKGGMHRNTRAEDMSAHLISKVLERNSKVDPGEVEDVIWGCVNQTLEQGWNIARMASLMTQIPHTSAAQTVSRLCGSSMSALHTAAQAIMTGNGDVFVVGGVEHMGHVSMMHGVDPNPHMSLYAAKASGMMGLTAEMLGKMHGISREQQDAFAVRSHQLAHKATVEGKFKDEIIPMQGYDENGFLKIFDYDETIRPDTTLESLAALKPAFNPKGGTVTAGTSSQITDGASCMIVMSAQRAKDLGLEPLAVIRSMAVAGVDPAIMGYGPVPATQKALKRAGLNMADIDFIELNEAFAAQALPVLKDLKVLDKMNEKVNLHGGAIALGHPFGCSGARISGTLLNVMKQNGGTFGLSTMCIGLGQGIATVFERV

Relative activity	Molecule
98.0%	CCCCCCCCCCCC(O)CC(=O)SCCNC(=O)CCNC(=O)[C@H](O)C(C)(C)COP(=O)(O)OP(=O)(O)OC[C@H]1O[C@@H](n2cnc3c(N)ncnc32)[C@H](O)[C@@H]1OP(=O)(O)O (some centres unmarked) [3-hydroxymyristoyl-CoA]
88.1%	CCCCCC(O)CC(=O)SCCNC(=O)CCNC(=O)[C@H](O)C(C)(C)COP(=O)(O)OP(=O)(O)OC[C@H]1O[C@@H](n2cnc3c(N)ncnc32)[C@H](O)[C@@H]1OP(=O)(O)O (some centres unmarked) [3-hydroxycaprylyl-CoA]
9.5%	CCCCCCCCCCCCCCCCCC(O)CC(=O)SCCNC(=O)CCNC(=O)[C@H](O)C(C)(C)COP(=O)(O)OP(=O)(O)OC[C@H]1O[C@@H](n2cnc3c(N)ncnc32)[C@H](O)[C@@H]1OP(=O)(O)O (some centres unmarked) [3-hydroxyarachidoyl-CoA]
56.5%	CCCC(O)CC(=O)SCCNC(=O)CCNC(=O)[C@H](O)C(C)(C)COP(=O)(O)OP(=O)(O)OC[C@H]1O[C@@H](n2cnc3c(N)ncnc32)[C@H](O)[C@@H]1OP(=O)(O)O (some centres unmarked) [3-hydroxycaproyl-CoA]
99.0%	CCCCCCCC(O)CC(=O)SCCNC(=O)CCNC(=O)[C@H](O)C(C)(C)COP(=O)(O)OP(=O)(O)OC[C@H]1O[C@@H](n2cnc3c(N)ncnc32)[C@H](O)[C@@H]1OP(=O)(O)O (some centres unmarked) [3-hydroxycapryl-CoA]
75.5%	CCCCCCCCCCCCCC(O)CC(=O)SCCNC(=O)CCNC(=O)[C@H](O)C(C)(C)COP(=O)(O)OP(=O)(O)OC[C@H]1O[C@@H](n2cnc3c(N)ncnc32)[C@H](O)[C@@H]1OP(=O)(O)O (some centres unmarked) [3-hydroxypalmitoyl-CoA]
30.5%	CCCCCCCCCCCCCCCC(O)CC(=O)SCCNC(=O)CCNC(=O)[C@H](O)C(C)(C)COP(=O)(O)OP(=O)(O)OC[C@H]1O[C@@H](n2cnc3c(N)ncnc32)[C@H](O)[C@@H]1OP(=O)(O)O (some centres unmarked) [3-hydroxystearyl-CoA]
100.0%	CCCCCCCCCC(O)CC(=O)SCCNC(=O)CCNC(=O)[C@H](O)C(C)(C)COP(=O)(O)OP(=O)(O)OC[C@H]1O[C@@H](n2cnc3c(N)ncnc32)[C@H](O)[C@@H]1OP(=O)(O)O (some centres unmarked) [3-hydroxylauryl-CoA]
57.5%	CCCCCCCC/C=C\CCCCCC(O)CC(=O)SCCNC(=O)CCNC(=O)[C@H](O)C(C)(C)COP(=O)(O)OP(=O)(O)OC[C@H]1O[C@@H](n2cnc3c(N)ncnc32)[C@H](O)[C@@H]1OP(=O)(O)O (some centres unmarked) [3-hydroxyoleyl-CoA]
99.0%	CC/C=C\C/C=C\C/C=C\CCCCCC(O)CC(=O)SCCNC(=O)CCNC(=O)[C@H](O)C(C)(C)COP(=O)(O)OP(=O)(O)OC[C@H]1O[C@@H](n2cnc3c(N)ncnc32)[C@H](O)[C@@H]1OP(=O)(O)O (some centres unmarked) [3-hydroxylinolenyl-CoA]

Molecular target: T1, 3-hydroxyacyl-CoA dehydrogenase activity of multi-active enzyme
Assay: Effect of metal ions on 3-hydroxyacyl-CoA dehydrogenase activity
Format: biochemical, Pseudomonas fragi B-0771
Conditions: 1 mM metal ion; control 100; 10 min
Protocol: as §1
(9) Effect of metal ions:
The effect of metal ions was measured on 3-hydroxyacyl-CoA dehydrogenase activity.

Molecule	Relative activity
[Ca+2].[Cl-].[Cl-] [CaCl 2]	113%
[Cl][Cu][Cl] [CuCl2]	12%
[Cl-].[Cl-].[Mg+2] [MgCl2]	113%
[Cl-].[Cl-].[Zn+2] [ZnCl2]	25%
[Cl-].[Cl-].[Co+2] [CoCl2]	34%
[Cl][Mn][Cl] [MnCl2]	32%
[Cl][Ni][Cl] [NiCl2]	95%
[Ba+2].[Cl-].[Cl-] [BaCl2]	106%

Molecular target: T1, 3-hydroxyacyl-CoA dehydrogenase activity of multi-active enzyme
Assay: Effect of surface active agents on 3-hydroxyacyl-CoA dehydrogenase activity
Format: biochemical, Pseudomonas fragi B-0771
Conditions: 0.1% surface active agent; control 100; 10 min
Protocol: as §1
(10) Effect of surface active agents:
The effect of surface active agents was measured on 3-hydroxyacyl-CoA dehydrogenase activity.

Molecule	Relative activity
laurylbenzene sulfonate	0%
Triton X-100	96%

Same assay, conditions: 10 min; 0.1% surface active agent; control 100; read-out: Relative activity

Molecule	activity at 0.1 %
CCCCCCCCCCCCOS(=O)(=O)[O-].[Na+] [sodium lauryl sulfate]	0%
C[C@H](CCC(=O)O)[C@H]1CC[C@H]2[C@@H]3CC[C@@H]4C[C@H](O)CC[C@]4(C)[C@H]3C[C@H](O)[C@]12C [sodium deoxycholate]	2%
CCCCCCCCCCCCCCCC[N+](C)(C)C [cetyltrimethylammonium chloride]	0%

Source: US4491631A, “Assay method for lipid component, assay composition, and process for production of enzyme used therefor” (Toyo Jozo Kabushiki Kaisha, priority 1981, dated 1985)
